Test results as given in patent publication US20030158250A1, “Agents correcting gene expression regulatory error” (priority 2000, published 2003).

Experiments:
Assay type in all cases: cell-based
[1] = test system: liver and activation-regulated chemokine (LARC); test: RT-PCR expression level of LARC gene in monocytes; conditions: human monocytes, 30 PCR cycles
Experimental: (§1) Four-hundred milliliters of blood was collected from a human normal individual donor. The collected blood was diluted 2-folds with PBS(−), overlaid on Ficoll-paque (manufactured by Pharmacia), and centrifuged at 500×g for 20 minutes. The peripheral blood mononuclear cells (PBMCs) in the intermediate layer was collected with a pipette, and washed with RPMI 1640 medium (manufactured by Bio Whittaker). The collected PBMCs was suspended in a storage solution of 90% FCS (manufactured by JRH Biosciences)/10% dimethyl sulfoxide, and stored in liquid nitrogen. During the experiment, these stored PBMCs were rapidly melted in water bath at 37° C., and washed with RPMI 1640 medium containing 10 μg/ml Dnase (manufactured by Calbiochem). Thereafter, the number of living cells was calculated by trypan blue staining method, and subjected to each experiment.
(§2) PBMCs were suspended in RPMI 1640 medium containing 5% human serum of blood type-AB, 0.1 mM nonessential amino acid, 1 mM sodium pyruvate, 2 mM L-glutamine (hereinabove manufactured by Bio Whittaker), 10 mM HEPES (manufactured by nakalai tesque), and 1% streptomycin-penicillin (manufactured by Gibco BRL) (hereinafter simply referred to as “5HRPMI medium”) so as to have a concentration of 4×10^6 cells/ml. Thereafter, the suspension was spread on a 6-well cell culture plate (manufactured by Falcon) in a volume of 3 ml/well, and the cells were incubated in a wet-type incubator at 37° C. and 5% CO2 for 1.5 hours. After 1.5 hours, the non-adherent cells were removed by suction, and each well was washed with RPMI 1640 medium, and 2 ml of the 5HRPMI medium was added to the wells, to give monocytes.
(§3) To the monocytes obtained above was added in each well 8 μl of an aqueous DGE solution, or 8 μl of water as a control, and the cells were incubated in a wet-type incubator at 37° C. and 5% CO2 for 5 hours. Thereafter, with addition of 2 μl of a 1 μg/ml aqueous LPS solution or 2 μl of a 25 μM TPA dimethyl sulfoxide solution to each well, or with addition of neither of these substances thereto, the cells were cultured for additional 4 hours. Thereafter, RNA was prepared from each cell in accordance with the description of the kit using RNeasy Mini Kit (manufactured by QIAGEN, 74104). The group with addition of water alone or the aqueous DGE solution alone to the cells was set as a negative control, and the group with addition of water and the aqueous LPS solution or the aqueous TPA solution to the cells was set as a positive control.
(§4) A liquid mixture having a total volume of 60 μl of 0.5 μg of RNA prepared above, 10 mM Tris-HCl (pH 8.3), 50 mM KCl, 5 mM MgCl2, 1 mM dNTP mixtures, 150 pmol of Random 6 mers, 60 U Ribonuclease Inhibitor (manufactured by Takara Shuzo Co., Ltd., 2310A), and 15 U Reverse Transcriptase XL (AMV) (manufactured by Takara Shuzo Co., Ltd., 2620A) were incubated at 30° C. for 10 minutes and thereafter at 42° C. for 1 hour using a thermal cycler (GeneAmp PCR System 9600, manufactured by Applied Biosystems), and the mixture was heated at 99° C. for 5 minutes to deactivate the enzyme, to give cDNA.
(§5) Oligonucleotide primers for reaction of PCR were designed based on mRNA nucleotide sequence of each gene listed in the following tables, and synthesized in the same manner as above. In Tables 4 and 5, each gene evaluated in this Example, GenBank Accession NO, the name of oligonucleotide primers and SEQ ID NOs of the primers in Sequence Listing were listed. […]

[2] = test system: macrophage inflammatory protein-2-β (MIP2β); test: RT-PCR expression level of MIP2β gene in monocytes; conditions: human monocytes, 30 PCR cycles
Experimental: as §1, §2, §3, §4, §5

[3] = test system: properdin P factor, complement (PFC); test: RT-PCR expression level of PFC gene in monocytes; conditions: human monocytes, 35 PCR cycles
Experimental: as §1, §2, §3, §4, §5

[4] = test system: tumor necrosis factor α (TNFα); test: RT-PCR expression level of TNFα gene in monocytes; conditions: human monocytes, 30 PCR cycles
Experimental: as §1, §2, §3, §4, §5

lyzozyme (Lyz) = test: RT-PCR expression level of Lyz gene in monocytes; conditions: human monocytes, 30 PCR cycles
Experimental: as §1, §2, §3, §4, §5

RANTES mRNA = test: RT-PCR of RANTES mRNA in monocytes; conditions: human monocytes
Experimental: as §1
PBMCs were suspended in RPMI 1640 medium containing 5% human serum of blood type-AB, 0.1 mM nonessential amino acid, 1 mM sodium pyruvate, 2 mM L-glutamine (hereinabove manufactured by Bio Whittaker), 10 mM HEPES (manufactured by nakalai tesque), and 1% streptomycin-penicillin (manufactured by Gibco BRL) (hereinafter simply referred to as “5HRPMI medium”) so as to have a concentration of 4×10^6 cells/ml. […]

[5] = test system: interferon-inducible protein p78 (IFNp78); test: RT-PCR expression level of IFNp78 gene in monocytes; conditions: human monocytes, 30 PCR cycles
Experimental: as §1, §2, §3, §4, §5

CD37 antigen (CD37) = test: RT-PCR expression level of CD37 gene in monocytes; conditions: human monocytes, 35 PCR cycles
Experimental: as §1, §2, §3, §4, §5

[6] = substance added alone, Con. (water) +/−
[7] = substance added alone, Con. (water) +
[8] = T + D: DGE and TPA, TPA alone ++
[9] = L + D: DGE and LPS, LPS alone ++
[10] = L + D: DGE and LPS, LPS alone −
[11] = T + D: DGE and TPA, TPA alone +
[12] = T + D: DGE and TPA, TPA alone +/−

Compound	expression level of LARC gene [1, 6]	expression level of MIP2β gene [2, 7]	expression level of PFC gene [3, 7]	expression level of TNFα gene [4, 6]	expression level of Lyz gene (lyzozyme (Lyz); [7])	expression level of IFNp78 gene [5, 7]	expression level of CD37 gene (CD37 antigen (CD37); [6])	further results
lipopolysaccharide [LPS, reference compound]	+++	++	−	++	+/−	++	−	amplification of band ascribed to RANTES mRNA, stimulant alone (RANTES mRNA; LPS alone, 4 hours, RT-PCR): induction
12-o-tetradecanoylphorbol 13-acetate [TPA, reference compound]	++	++	+	+	+/−	+	+/−	
O=C1C=CC(CO)OC1O [DGE, L-glycero-1,5-epoxy-1αβ,6-dihydroxy-cis-hex-3-en-2-one]	+/−	+	+	−	+	+/−	+/−	expression level of LARC gene ([1]; L + D: DGE and LPS, LPS alone +++): +; expression level of LARC gene [1, 8]: +; expression level of MIP2β gene [2, 9]: +; expression level of MIP2β gene [2, 8]: +; expression level of PFC gene [3, 10]: +; expression level of PFC gene [3, 11]: +; expression level of TNFα gene [4, 9]: +/−; expression level of TNFα gene [4, 11]: +/−; expression level of Lyz gene (lyzozyme (Lyz); L + D: DGE and LPS, LPS alone +/−): +; expression level of Lyz gene (lyzozyme (Lyz); [12]): +; induction of RANTES mRNA by LPS, effect of DGE (RANTES mRNA; DGE 5 hours, then LPS 4 hours, RT-PCR band): inhibited; expression level of IFNp78 gene [5, 9]: −; expression level of IFNp78 gene [5, 11]: +/−; expression level of CD37 gene (CD37 antigen (CD37); [10]): +; expression level of CD37 gene (CD37 antigen (CD37); [12]): +/−
